# Test system: MRSA
# Assay: Potentiating effect of galloyl quinic acid derivatives for the antibacterial activity of oxacillin (agar plate dilution method, MIC)
# Assay type: cell-based, Staphylococcus aureus
# Description: According to the agar plate dilution method defined by Japan Society of Chemotherapy, MIC (Minimum inhibitory concentration) was determined. CAMHA was prepared by adding 50 mg/l of Ca-ion, 25 mg/l of Mg-ion, and 2% of NaCl to Mueller-Hinton II Agar (MHA), and it was used as a medium for use in the measurement of sensitivity. The bacterial liquid was incubated at 37° C. overnight and diluted to 10^6 CFU/ml with saline.
# It was confirmed that the known substances shown below were contained in “Tara” and their MICs were determined as described in example 2 with respect to the effects of the combination use with oxacillin
smiles,measurement,setting,value
O=C(OC1CC(O)(C(=O)O)CC(OC(=O)c2cc(O)c(O)c(O)c2)C1OC(=O)c1cc(O)c(O)c(O)c1)c1cc(O)c(O)c(O)c1 (stereo not drawn) [compound 3],Oxacillin MIC,"ATCC 6538, with 12.5 μg/ml of compound",<0.5 µg/mL
same,Oxacillin MIC,"ATCC 6538, with 25 μg/ml of compound",<0.5 µg/mL
same,Oxacillin MIC,"ATCC 6538, with 50 μg/ml of compound",<0.5 µg/mL
same,Oxacillin MIC,"MRSA 1, with 12.5 μg/ml of compound",128 µg/mL
same,Oxacillin MIC,"MRSA 1, with 25 μg/ml of compound",32 µg/mL
same,Oxacillin MIC,"MRSA 1, with 50 μg/ml of compound",64 µg/mL
same,Oxacillin MIC,"MRSA 2, with 12.5 μg/ml of compound",2 µg/mL
same,Oxacillin MIC,"MRSA 2, with 25 μg/ml of compound",<0.5 µg/mL
same,Oxacillin MIC,"MRSA 2, with 50 μg/ml of compound",<0.5 µg/mL
same,Oxacillin MIC,"MRSA 3, with 12.5 μg/ml of compound",4 µg/mL
same,Oxacillin MIC,"MRSA 3, with 25 μg/ml of compound",<0.5 µg/mL
same,Oxacillin MIC,"MRSA 3, with 50 μg/ml of compound",1 µg/mL
same,Oxacillin MIC,"MRSA 4, with 12.5 μg/ml of compound",32 µg/mL
same,Oxacillin MIC,"MRSA 4, with 25 μg/ml of compound",4 µg/mL
same,Oxacillin MIC,"MRSA 4, with 50 μg/ml of compound",2 µg/mL
same,Oxacillin MIC,"MRSA 5, with 12.5 μg/ml of compound",64 µg/mL
same,Oxacillin MIC,"MRSA 5, with 25 μg/ml of compound",8 µg/mL
same,Oxacillin MIC,"MRSA 5, with 50 μg/ml of compound",8 µg/mL
same,Oxacillin MIC,"MRSA 6, with 12.5 μg/ml of compound",4 µg/mL
same,Oxacillin MIC,"MRSA 6, with 25 μg/ml of compound",2 µg/mL
same,Oxacillin MIC,"MRSA 6, with 50 μg/ml of compound",4 µg/mL
same,Oxacillin MIC,"MRSA 7, with 12.5 μg/ml of compound",16 µg/mL
same,Oxacillin MIC,"MRSA 7, with 25 μg/ml of compound",4 µg/mL
same,Oxacillin MIC,"MRSA 7, with 50 μg/ml of compound",2 µg/mL
same,Oxacillin MIC,"MRSA 8, with 12.5 μg/ml of compound",8 µg/mL
same,Oxacillin MIC,"MRSA 8, with 25 μg/ml of compound",4 µg/mL
same,Oxacillin MIC,"MRSA 8, with 50 μg/ml of compound",8 µg/mL
same,Oxacillin MIC,"MRSA 9, with 12.5 μg/ml of compound",8 µg/mL
same,Oxacillin MIC,"MRSA 9, with 25 μg/ml of compound",2 µg/mL
same,Oxacillin MIC,"MRSA 9, with 50 μg/ml of compound",2 µg/mL
same,Oxacillin MIC,"MRSA 10, with 12.5 μg/ml of compound",4 µg/mL
same,Oxacillin MIC,"MRSA 10, with 25 μg/ml of compound",2 µg/mL
same,Oxacillin MIC,"MRSA 10, with 50 μg/ml of compound",4 µg/mL
same,Oxacillin MIC,"MRSA 12, with 12.5 μg/ml of compound",8 µg/mL
same,Oxacillin MIC,"MRSA 12, with 25 μg/ml of compound",4 µg/mL
same,Oxacillin MIC,"MRSA 12, with 50 μg/ml of compound",4 µg/mL
same,Oxacillin MIC,"MRSA 16, with 12.5 μg/ml of compound",32 µg/mL
same,Oxacillin MIC,"MRSA 16, with 25 μg/ml of compound",8 µg/mL
same,Oxacillin MIC,"MRSA 16, with 50 μg/ml of compound",8 µg/mL
same,Oxacillin MIC,"MRSA 17, with 12.5 μg/ml of compound",4 µg/mL
same,Oxacillin MIC,"MRSA 17, with 25 μg/ml of compound",8 µg/mL
same,Oxacillin MIC,"MRSA 17, with 50 μg/ml of compound",4 µg/mL
same,Oxacillin MIC,"MRSA 18, with 12.5 μg/ml of compound",32 µg/mL
same,Oxacillin MIC,"MRSA 18, with 25 μg/ml of compound",4 µg/mL
same,Oxacillin MIC,"MRSA 18, with 50 μg/ml of compound",4 µg/mL
same,Oxacillin MIC,"MRSA 20, with 12.5 μg/ml of compound",<0.5 µg/mL
same,Oxacillin MIC,"MRSA 20, with 25 μg/ml of compound",<0.5 µg/mL
same,Oxacillin MIC,"MRSA 20, with 50 μg/ml of compound",<0.5 µg/mL
same,Oxacillin MIC,"MRSA 21, with 12.5 μg/ml of compound",1 µg/mL
same,Oxacillin MIC,"MRSA 21, with 25 μg/ml of compound",<0.5 µg/mL
same,Oxacillin MIC,"MRSA 21, with 50 μg/ml of compound",<0.5 µg/mL
same,Oxacillin MIC,"MRSA 22, with 12.5 μg/ml of compound",1 µg/mL
same,Oxacillin MIC,"MRSA 22, with 25 μg/ml of compound",<0.5 µg/mL
same,Oxacillin MIC,"MRSA 22, with 50 μg/ml of compound",1 µg/mL
same,Oxacillin MIC,"MRSA COL, with 12.5 μg/ml of compound",8 µg/mL
same,Oxacillin MIC,"MRSA COL, with 25 μg/ml of compound",4 µg/mL
same,Oxacillin MIC,"MRSA COL, with 50 μg/ml of compound",4 µg/mL
same,Oxacillin MIC,"MSSA 1003, with 12.5 μg/ml of compound",<0.5 µg/mL
same,Oxacillin MIC,"MSSA 1003, with 25 μg/ml of compound",<0.5 µg/mL
same,Oxacillin MIC,"MSSA 1003, with 50 μg/ml of compound",<0.5 µg/mL
same,Oxacillin MIC,"MSSA 1010, with 12.5 μg/ml of compound",<0.5 µg/mL
same,Oxacillin MIC,"MSSA 1010, with 25 μg/ml of compound",<0.5 µg/mL
same,Oxacillin MIC,"MSSA 1010, with 50 μg/ml of compound",<0.5 µg/mL
same,Oxacillin MIC,"MSSA 1032, with 12.5 μg/ml of compound",<0.5 µg/mL
same,Oxacillin MIC,"MSSA 1032, with 25 μg/ml of compound",<0.5 µg/mL
same,Oxacillin MIC,"MSSA 1032, with 50 μg/ml of compound",<0.5 µg/mL
same,Oxacillin MIC,"RN4220, with 12.5 μg/ml of compound",<0.5 µg/mL
same,Oxacillin MIC,"RN4220, with 25 μg/ml of compound",<0.5 µg/mL
same,Oxacillin MIC,"RN4220, with 50 μg/ml of compound",<0.5 µg/mL

# — patent US20060235076A1, “Medicinal composition for treating infection with drug-resistant staphylococcus aureus” (priority 2003, published 2006)
